Measurements reported in ChEMBL document CHEMBL1201862, “PubChem BioAssay data set” (2004).
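1) Cells in 96-well plates. 2) Compound, 48 h, 5 concentrations. 3) Linear interpolation between surrounding doses. 4) Unreached endpoint = highest concentration. The concentration for 50% growth inhibition is given as GI50.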 Activity calls are given as the source filed them. No stated cut-off is given here; in the data, active = GI50 up to about 1.1 µM and inactive = higher.

Legend:
Test in all cases: inhibition of tumour cell growth, NCI panel, 48 h
[1] = tested on: 786-0
[2] = tested on: A498
[3] = tested on: A549
[4] = tested on: ACHN
[5] = tested on: CAKI-1
[6] = tested on: COLO 205
[7] = tested on: DU-145
[8] = tested on: HOP-62
[9] = tested on: HOP-92
[10] = tested on: MDA-MB-435
[11] = tested on: Malme-3M
[12] = tested on: NCI/ADR-RES
[13] = tested on: SK-MEL-2
[14] = tested on: SNB-19
[15] = tested on: SR
[16] = tested on: SW-620
[17] = tested on: T47D
[18] = tested on: U-251
[19] = tested on: UACC-257
[20] = tested on: UO-31

| Compound | GI50 [1] | GI50 [2] | GI50 [3] | GI50 [4] | GI50 [5] | GI50 [6] | GI50 [7] | GI50 [8] | GI50 [9] | GI50 [10] | GI50 [11] | GI50 [12] | GI50 [13] | GI50 [14] | GI50 [15] | GI50 [16] | GI50 [17] | GI50 [18] | GI50 [19] | GI50 [20] |
| --- | --- | --- | --- | --- | --- | --- | --- | --- | --- | --- | --- | --- | --- | --- | --- | --- | --- | --- | --- | --- |
| O=C(O)[C@@H]1[C@H](C(=O)O)[C@H](C(=O)O)C[C@@H]1C(=O)O | > 100 µM (inactive) | > 100 µM (inactive) | > 100 µM (inactive) | > 100 µM (inactive) | > 100 µM (inactive) | > 100 µM (inactive) | > 100 µM (inactive) | > 100 µM (inactive) | > 100 µM (inactive) | > 100 µM (inactive) | > 100 µM (inactive) | > 100 µM (inactive) | > 100 µM (inactive) | > 100 µM (inactive) | > 100 µM (inactive) | > 100 µM (inactive) | > 100 µM (inactive) | > 100 µM (inactive) | > 100 µM (inactive) | > 100 µM (inactive) |
| CC(C)=CCc1c(O)c(CC=C(C)C)c2oc(-c3ccc(O)cc3O)c(CC=C(C)C)c(=O)c2c1O | 8.91 µM (inactive) | 13.8 µM (inactive) | 5.4 µM (inactive) | 7.62 µM (inactive) | 12.7 µM (inactive) | 27.1 µM (inactive) | 12.4 µM (inactive) | 9.06 µM (inactive) | 8.26 µM (inactive) | 4.52 µM (inactive) | 16.3 µM (inactive) | 12.3 µM (inactive) | 3.66 µM (inactive) | 12.6 µM (inactive) | 2.34 µM (inactive) | 6.1 µM (inactive) | 3.97 µM (inactive) | 9.12 µM (inactive) | 12.5 µM (inactive) | 8.22 µM (inactive) |
| CC(C)=CCC/C(C)=C/CC/C(C)=C/CC(CO)N(C)CC/C=C(\C)CCC=C(C)C (stereo not given) | 1.91 µM (inactive) | 14.9 µM (inactive) | 4.93 µM (inactive) | 11.6 µM (inactive) | 6.64 µM (inactive) | 2.42 µM (inactive) | 11.5 µM (inactive) | 4.32 µM (inactive) | 2.7 µM (inactive) | 3.93 µM (inactive) | 2.99 µM (inactive) | 4.62 µM (inactive) | 14.3 µM (inactive) | 8.91 µM (inactive) | 2.17 µM (inactive) | 3.62 µM (inactive) | 3.64 µM (inactive) | 3.56 µM (inactive) | 5.2 µM (inactive) | 4.65 µM (inactive) |
| O=C1C(=O)c2c(oc(=O)c3ccccc23)-c2ccccc21 | > 25 µM (inactive) | > 25 µM (inactive) | > 25 µM (inactive) | > 25 µM (inactive) | > 25 µM (inactive) | > 25 µM (inactive) | > 25 µM (inactive) | > 25 µM (inactive) | 15.3 µM (inactive) | 6.75 µM (inactive) | 8.93 µM (inactive) | 22.9 µM (inactive) | > 25 µM (inactive) | > 25 µM (inactive) | > 25 µM (inactive) | 22.2 µM (inactive) | > 25 µM (inactive) | > 25 µM (inactive) | > 25 µM (inactive) | > 25 µM (inactive) |
| Cc1ccc2c(c1C)C(=O)/C(=C/c1ccccc1C(=O)O)C2 | > 100 µM (inactive) | > 100 µM (inactive) | > 100 µM (inactive) | > 100 µM (inactive) | > 100 µM (inactive) | > 100 µM (inactive) | > 100 µM (inactive) | > 100 µM (inactive) | > 100 µM (inactive) | > 100 µM (inactive) | > 100 µM (inactive) | > 100 µM (inactive) | > 100 µM (inactive) | > 100 µM (inactive) | > 100 µM (inactive) | > 100 µM (inactive) | > 100 µM (inactive) | > 100 µM (inactive) | > 100 µM (inactive) | > 100 µM (inactive) |
| CC1(C)N=C(N)N=C(N)N1c1ccc(CCCCc2ccc(S(=O)(=O)F)cc2Cl)c(Cl)c1 | 0.186 µM (active) | 37.2 µM (inactive) | 0.706 µM (active) | 2.22 µM (inactive) | 9.55 µM (inactive) | 5.85 µM (inactive) | 2.85 µM (inactive) | 9.35 µM (inactive) | 4.18 µM (inactive) | 3.95 µM (inactive) | 4.05 µM (inactive) | 143 µM (inactive) | 8.34 µM (inactive) | 3.64 µM (inactive) | 0.207 µM (active) | 2.7 µM (inactive) | 10.5 µM (inactive) | 1.02 µM (active) | 5.56 µM (inactive) | 36.1 µM (inactive) |
| NC(=O)c1[nH]nc(C2OC(CO)C(O)C2O)c1O (stereo not given) | 0.5 µM (active) | 60.5 µM (inactive) | 0.6 µM (active) | 0.5 µM (active) | 0.689 µM (active) | 16 µM (inactive) | 0.5 µM (active) | 2.68 µM (inactive) | 30.5 µM (inactive) | 15.7 µM (inactive) | 368 µM (inactive) | 2.68 µM (inactive) | 84.7 µM (inactive) | 2.6 µM (inactive) | 0.5 µM (active) | 0.55 µM (active) | 5.55 µM (inactive) | 1.38 µM (inactive) | 966 µM (inactive) | 4.01 µM (inactive) |
